Measured values reported in US20230031406A1, “COMPOUNDS AND COMPOSITIONS FOR TREATING CONDITIONS ASSOCIATED WITH NLRP ACTIVITY” (Novartis AG, priority 2018, published 2023).
Like-named read-outs stand apart in the source and are kept apart here. Values belong to the molecule of their own block, whether it stands above or below them.

System: PMA-differentiated THP-1 cells
Test: IL-1β production in PMA-differentiated THP-1 cells stimulated with gramicidin (hTHP-1 assay containing 2% fetal bovine serum; Procedures 1 and 2)
Assay type: cell-based, human
Conditions: 2% fetal bovine serum
Outline: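 PMA 20 ng/ml 16-18 h → trypsinise → 50,000 cells/well, RPMI/2% FBS; cpd 1 h (11-pt, 100–0.0017 μM; DMSO 0.37%); gramicidin 5 μM, 2 h; spin; supernatant IL-1β via HTRF.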

[1] = Homo sapiens, THP-1, Table B1, numeric bounds, read-out: Average IC50 of compounds in hTHP-1 assay: hTHP-1 IC50
[2] = Homo sapiens, THP-1, Table B2, numeric bounds, read-out: hTHP-1 IC50
[3] = Table B1, class symbols, read-out: Average IC50 of compounds in hTHP-1 assay: hTHP-1 IC50
[4] = Homo sapiens, THP-1, Table B2, class symbols, read-out: hTHP-1 IC50
[5] = Table B2, class symbols, read-out: hTHP-1 IC50
[6] = Homo sapiens, THP-1, Table B3, hTHP-1 assay, class symbols, read-out: IC50
[7] = Homo sapiens, THP-1, Table B1, class symbols, read-out: Average IC50 of compounds in hTHP-1 assay: hTHP-1 IC50

SMILES: Cc1cc(C2CC2)nc(NC(=O)N=S(N)(=O)c2ncc(C(C)(C)O)s2)n1 (centres unmarked) [Compound 185, N′-((4-cyclopropyl-6-methylpyrimidin-2-yl)carbamoyl)-5-(2-hydroxypropan-2-yl)thiazole-2-sulfonimidamide]
IC50 [1]: > 30 µM
IC50 [2]: > 30 µM

SMILES: C[C@@H]1CCc2c1nc1c(c2NC(=O)N=S(N)(=O)c2nn(-c3ccccc3)cc2F)CCC1 (single isomer, unassigned) [Example 791, (R) or (S)-4-fluoro-N′-(((R)-3-methyl-1,2,3,5,6,7-hexahydrodicyclopenta[b,e]pyridin-8-yl)carbamoyl)-1-phenyl-1H-pyrazole-3-sulfonimidamide]
IC50 (Homo sapiens, THP-1, Table B4, class symbols, read-out: hTHP-1 IC50): 0.2 to 1 µM

SMILES: Cc1cn(C(C)C)nc1S(N)(=O)=NC(=O)Nc1c2c(nc3c1CCC3)CCC2 (centres unmarked) [Compound 687, N′-((1,2,3,5,6,7-hexahydrodicyclopenta[b,e]pyridin-8-yl)carbamoyl)-1-isopropyl-4-methyl-1H-pyrazole-3-sulfonimidamide]
IC50 [4]: 5 to 30 µM

SMILES: CC(C)(O)c1csc(S(N)(=O)=NC(=O)Nc2c3c(nc(C4CC4)c2C2CC2)CCC3)c1 (centres unmarked) [Compound 670, N′-((2,3-dicyclopropyl-6,7-dihydro-5H-cyclopenta[b]pyridin-4-yl)carbamoyl)-4-(2-hydroxypropan-2-yl)thiophene-2-sulfonimidamide]
IC50 [4]: 0.2 to 1 µM

SMILES: CC1(C)CCc2c1nc1c(c2NC(=O)N=S(N)(=O)c2ccn(-c3ccccc3)n2)CCC1 (single isomer, unassigned) [Compound 659b, (R) or (S)-N′-((3,3-dimethyl-1,2,3,5,6,7-hexahydrodicyclopenta [b,e]pyridin-8-yl)carbamoyl)-1-phenyl-1H-pyrazole-3-sulfonimidamide]
IC50 [5]: 0.2 to 1 µM

SMILES: CC1(C)Cc2nc3c(c(NC(=O)N=S(N)(=O)c4cnc(C(C)(C)O)s4)c2C1)CCC3 (single isomer, unassigned) [Compound 147a, (S) or (R)-N′-((2,2-dimethyl-1,2,3,5,6,7-hexahydrodicyclo-penta[b,e]pyridin-8-yl)carbamoyl)-2-(2-hydroxypropan-2-yl)thiazole-5-sulfonimidamide]
IC50 [1]: > 30 µM

SMILES: NS(=O)(=NC(=O)Nc1c2c(nc(C(F)(F)F)c1C1CC1)CCC2)c1nn(C(F)F)cc1F (centres unmarked) [Compound 984a]
IC50 (Table B3, hTHP-1 assay, class symbols, listed as Compound 984a, read-out: IC50): 5 to 30 µM

SMILES: Cn1nc(S(N)(=O)=NC(=O)Nc2c3c(nc4c2CCC4)CCC3)cc1C(C)(C)O (single isomer, unassigned) [Compound 158b, (S) or (R)-N′-((1,2,3,5,6,7-hexahydrodicyclo-penta[b,e]pyridin-8-yl)carbamoyl)-5-(2-hydroxypropan-2-yl)-1-methyl-1H-pyrazole-3-sulfonimidamide]
IC50 [1]: > 30 µM

SMILES: CC1(C)CCc2c1nc1c(c2NC(=O)N=S(N)(=O)c2sc(C(C)(O)CO)cc2F)CCC1 (single isomer, unassigned) [Compound 640a, (R, R) and (S, R) or (R, S) and (S, S)-5-(1,2-Dihydroxypropan-2-yl)-N′-((3,3-dimethyl-1,2,3,5,6,7-hexahydrodicyclopenta [b,e]pyridin-8-yl)carbamoyl)-3-fluorotliophene-2-sulfonimidamide]
IC50 [5]: 0.008 to 0.04 µM

SMILES: Cc1c(C(C)C)nc2c(c1NC(=O)N=S(N)(=O)c1ccn(C(C)C)n1)CCC2 (single isomer, unassigned) [Compound 644b, (R) or (S)-1-Isopropyl-N′-((2-isopropyl-3-methyl-6,7-dihydro-5H-cyclopenta[b]pyridin-4-yl)carbamoyl)-1H-pyrazole-3-sulfonimidamide]
IC50 [4]: 1 to 5 µM

SMILES: CC(C)(O)c1cc(S(N)(=O)=NC(=O)Nc2c3c(nc4c2CCC4(C)C)CCC3)nn1-c1ccccc1 (single isomer, unassigned) [Compound 663b, (R) or (S)-N′-((3,3-dimethyl-1,2,3,5,6,7-hexahydrodicyclopenta [b,e]pyridin-8-yl)carbamoyl)-5-(2-hydroxypropan-2-yl)-1-phenyl-1H-pyrazole-3-sulfonimidamide]
IC50 [4]: 1 to 5 µM

SMILES: CC(C)(O)c1nc(CO)c(S(N)(=O)=NC(=O)Nc2c3c(nc4c2CCC4)CCC3)s1 (single isomer, unassigned) [Compound 150b, (R) or (S)-N′-((1,2,3,5,6,7-hexahydrodicyclo-penta[b,e]pyridin-8-yl)carbamoyl)-4-(hydroxymethyl)-2-(2-hydroxypropan-2-l)thiazole-5-sulfonimidamide]
IC50 [3]: 0.2 to 1 µM

SMILES: CC(C)c1ncc(F)c(C(C)C)c1NC(=O)N=S(N)(=O)c1sc(C(C)(C)O)cc1F (single isomer, unassigned) [Compound 106b, (S) or (R)-3-fluoro-N′-((5-fluoro-2,4-diisopropylpyridin-3-yl)carbamoyl)-5-(2-hy-droxypropan-2-yl)thiophene-2-sulfonimidamide]
IC50 [3]: 1 to 5 µM

SMILES: CCn1nc(S(N)(=O)=NC(=O)Nc2c3c(nc4c2CC[C@H]4C)CCC3)cc1CO (stereo partly drawn) [Example 590, 1-Ethyl-5-(hydroxymethyl)-N′-(((R)-3-methyl-1,2,3,5,6,7-hexahydrodicyclopenta[b,e]pyridin-8-yl)carbamoyl)-1H-pyrazole-3-sulfonimidamide]
IC50 [6]: 1 to 5 µM

SMILES: Cc1c(C(=O)O)nc2c(c1NC(=O)N=S(N)(=O)c1cnc(C(C)(C)O)s1)CCC2 (centres unmarked) [Example 636, 4-(3-(Amino(2-(2-hydroxypropan-2-yl)thiazol-5-yl)(oxo)-l6-sulfaneylidene)ureido)-3-methyl-6,7-dihydro-5H-cyclopenta[b]pyridine-2-carboxylic acid]
IC50 (Homo sapiens, THP-1, Table B3, hTHP-1 assay, numeric values, read-out: IC50): > 30 µM

Continued, values first:

IC50 [3]: 5 to 30 µM
SMILES: CC(C)(O)c1ncc(S(N)(=O)=NC(=O)Nc2c3c(nc4c2CCC4)CCCC3)s1 (single isomer, unassigned) [Compound 161a, (S) or (R)-N′-((2,3,5,6,7,8-hexahydro-1H-cyclopenta[b]quinolin-9-yl)carbamoyl)-2-(2-hydroxypropan-2-yl)thiazole-5-sulfonimidamide]

IC50 [5]: 5 to 30 µM
SMILES: Cc1c(C(C)C)nc2c(c1NC(=O)N=S(N)(=O)c1sc(C(C)(C)O)cc1F)CCC2 (single isomer, unassigned) [Compound 645b, (S) or (R)-3-Fluoro-5-(2-hydroxypropan-2-yl)-N′-((2-isopropyl-3-methyl-6,7-dihydro-5H-cyclopenta[b]pyridin-4-yl)carbamoyl) thiophene-2-sulfonimidamide]

IC50 [4]: 0.04 to 0.2 µM
SMILES: CCc1nc2c(c(NC(=O)N=S(N)(=O)c3sc(C(C)(C)O)cc3F)c1C1CC1)CCC2 (centres unmarked) [Compound 631, N′-((3-cyclopropyl-2-ethyl-6,7-dihydro-5H-cyclopenta[b]pyridin-4-yl)carbamoyl)-3-fluoro-5-(2-hydroxypropan-2-yl)thiophene-2-sulfonimidamide]

IC50 (Table B1, numeric bounds, read-out: Average IC50 of compounds in hTHP-1 assay: hTHP-1 IC50): > 30 µM
SMILES: CC(C)(O)c1ncc(S(N)(=O)=NC(=O)Nc2cc(-c3ccccc3)nc3c2CCC3)s1 (single isomer, unassigned) [Compound 142b, (S) or (R)-2-(2-hydroxy-propan-2-yl)-N′-((2-phenyl-6,7-dihydro-5H-cyclopenta[b]pyridin-4-yl)carbamoyl)thiazole-5-sulfonimidamide]

IC50 [3]: 5 to 30 µM
SMILES: Cc1c(C2CC2)nc2c(c1NC(=O)N=S(N)(=O)c1cc(C(C)(C)O)cs1)CCC2 (single isomer, unassigned) [Compound 175a, (R) or (S)-N′-((2-cyclopropyl-3-methyl-6,7-dihydro-5H-cyclopenta[b]pyridin-4-yl)carbamoyl)-4-(2-hydroxypropan-2-yl)thiophene-2-sulfonimidamide]

IC50 [6]: 1 to 5 µM
SMILES: CC1(C)CCc2c1nc1c(c2NC(=O)N=S(N)(=O)c2cnn3c2OC[C@H](O)C3)CCC1 (stereo partly drawn) [Example 603, (6R)-N′-((3,3-dimethyl-1,2,3,5,6,7-hexahydrodicyclopenta[b,e]pyridin-8-yl)carbamoyl)-6-hydroxy-6,7-dihydro-5H-pyrazolo[5,1-b][1,3]oxazine-3-sulfonimidamide]

IC50 [7]: 1 to 5 µM
SMILES: CC(C)c1csc(S(N)(=O)=NC(=O)Nc2c3c(nc4c2CCC4C)C(C)CC3)c1 (centres unmarked) [Compound 123, N′-((3,5-dimethyl-1,2,3,5,6,7-hexahydrodicyclopenta[b,e]pyridin-8-yl)carbamoyl)-4-isopropylthiophene-2-sulfonimidamide]

IC50 [7]: 0.2 to 1 µM
SMILES: CC(C)n1ccc(S(N)(=O)=NC(=O)Nc2c3c(nc4c2CCC42CC2)CCC3)n1 (centres unmarked) [Compound 172, 1-isopropyl-N′-((1′,5′,6′,7′-tetrahydro-2′H-spiro[cyclopropane-1,3′-dicyclopenta[b,e]pyridin]-8′-yl)carbamoyl)-1H-pyrazole-3-sulfonimidamide]

IC50 [2]: > 30 µM
SMILES: Cc1nc2c(c(NC(=O)N=S(N)(=O)c3ncc(C(C)(C)O)s3)c1C1CC1)CCC2 (single isomer, unassigned) [Compound 618a, (S) or (R)-N′-((3-cyclopropyl-2-methyl-6,7-dihydro-5H-cyclopenta[b]pyridin-4-yl)carbamoyl)-5-(2-hydroxypropan-2-yl)thiazole-2-sulfonimidamide]

IC50 [3]: 0.2 to 1 µM
SMILES: Cc1c(C2CC2)nc2c(c1NC(=O)N=S(N)(=O)c1cnc(C(C)(C)O)s1)CCC2 (single isomer, unassigned) [Compound 124b, (R) or (S)-N′-((2-cyclopropyl-3-methyl-6,7-dihydro-5H-cyclopenta[b]pyridin-4-yl)carbamoyl)-2-(2-hydroxypropan-2-yl)thiazole-5-sulfonimidamide]
